Reference: patent US20250177547A1, “PSMA-STEAP1 DUAL VARIABLE DOMAIN IMMUNOGLOBLIN (DVD-Ig) MOLECULES AND DRUG CONJUGATES” (AbbVie Inc., priority 2023, published 2025)
Values joined by “and” are separate entries in the source; they are usually repeats but may differ in a detail not shown here. Identical values can stand only once.

Key:
LNCaP.FGC cells = assay: In vitro cytotoxicity of MMAE conjugates (CellTiter-Glo), LNCaP.FGC; conditions: read-out: LNCaP.FGC IC50, 7 days
HEK293-PSMA cells = assay: In vitro cytotoxicity of MMAE conjugates (CellTiter-Glo), HEK293-PSMA; conditions: read-out: HEK293-PSMA IC50, 7 days, CellTiter-Glo

With PSMA the IC50 (LNCaP.FGC cells) was 0.15 nM and 0.1 nM and the IC50 (HEK293-PSMA cells) was 0.07 nM and 0.06 nM.
